Tests used:
[1] = test system: human osteosarcoma cells (U2OS); assay: Cytotoxicity assay using MTT, U2OS; format: cell-based; details: FIG. 5
Protocol: (§1) Human osteosarcoma cells (U2OS) were cultured in a humidified incubator (37° C., 5% CO2) using a medium in which Dulbecco's modified Eagle's medium (DMEM, Invitrogen) is added with 10% bovine fetal serum. The cells were cultured to become 40% to 60% confluent and treated with AshLe-WEX (final concentration: 1%; 200 μg/mL) and the 1st and 2nd fractions thereof (AshLe-WEX-F1 and F2), respectively. The cells were treated over about 48 hours during culture at 37° C.
(§2) AshLe-WEX and the fractions thereof were evaluated in terms of cytotoxicity by assay using MTT. After the above treatment, MTT (0.5 mg/mL) was added to each cell culture medium, followed by incubation for 4 hours. Next, the medium containing MTT was removed and 100 μL of DMSO was added to each well to completely dissolve formazan crystals. Absorbance was detected at 550 nm using a spectrophotometer (Wallac ARVO SX).
(§3) Cytotoxicity of triethylene glycol to human osteosarcoma cells (U2OS) and normal human fibroblasts (TIG-1) was tested in the manner described in item 5 above. […] Further, cell cycle analysis was conducted using human osteosarcoma cells (U2OS).

[2] = test system: normal human fibroblasts (TIG-1); assay: Cytotoxicity assay using MTT, TIG-1; format: cell-based; details: TIG-1, FIG. 5
Protocol: as §1, §2, §3

[3] = test system: human osteosarcoma cells (U2OS); assay: Cell cycle analysis; format: cell-based; details: FIG. 6
Protocol: as §3

[4] = test system: HT1080 cells (human fibrosarcoma cells); assay: In vivo antitumor assay, HT1080 subcutaneous xenograft; parameters: species or system Balb/c nude mice; details: oral administration, 250 μL of 5% triethylene glycol with 2% carboxymethyl cellulose, 12 times at intervals of two days, FIG. 7
Protocol: (§4) In vivo antitumor assay of AshLe-WEX and triethylene glycol was conducted using subcutaneous xenograft and tail vein metastasis model mice produced with the use of HT1080 cells from an invasive tumor with high lung metastasis (human fibrosarcoma cells, obtained from the JCRB Cell Bank).
HT1080 cells (6×10^6 cells in 0.2 mL of growth medium) were subcutaneously injected into Balb/c nude mice (4-week-old female mice purchased from CLEA Japan, Inc.) at two sites per mouse, and an equivalent amount of the same was injected into the tail vein of each mouse. 2% carboxymethyl cellulose was administered with feed to a control group. A mixture containing AshLe-WEX (100-250 mg/kg body weight/administration) and 2% carboxymethyl cellulose was administered with feed to an AshLe-WEX group. A TEG group was given a 5% triethylene glycol aqueous solution via oral administration (at a dose per administration of 250 μL of a preparation of 5% triethylene glycol mixed with 2% carboxymethyl cellulose) or intraperitoneal injection (at a dose per administration of 100 μL of 5% triethylene glycol). […] For metastasis assay, each mouse was euthanized by cervical dislocation 5 weeks after tail vein injection, the lung was fixed with 4% formaldehyde, and the number of tumor colonies was counted. […]

[5] = test system: HT1080 cells (human fibrosarcoma cells); assay: In vivo tumor metastasis assay, HT1080 tail vein injection; parameters: species or system Balb/c nude mice
Protocol: as §4, with “AshLe-WEX” left out, “Bank). […] This administration treatment was started on day 8 after injection of HT1080 cells and repeated 12 times in total at intervals of two days. […] This assay was repeated twice using three mice for each group.” for “Bank).”

[6] = test system: HT1080 cells; assay: In vitro Matrigel invasion assay; format: cell-based, human; details: FIG. 9
[7] = test system: p53; assay: Western blotting of p53 in U2OS; format: cell-based, human
Source text: (§5) In order to investigate the cytotoxicity action mechanism of triethylene glycol, human osteosarcoma cells (U2OS) and normal human fibroblasts (TIG-1) were each treated with […] or triethylene glycol (TEG), and the expression of cancer-inhibiting proteins p53 and pRB was examined by SDS-PAGE and Western blotting. […] Numbers 1-5 in the bar charts of the expression level in the lower half of FIG. 10A correspond to numbers 1-5 of the lanes in the photo images in the upper half of FIG. 10A.

[8] = test system: p53; assay: Western blotting of p53 in TIG-1; format: cell-based, human; details: normal cells (TIG-1)
Source text: as §5

[9] = test system: p21; assay: Western blotting of p21 in TIG-1; format: cell-based, human; details: normal cells (TIG-1), 48 hours, vs control, FIG. 10A
Source text: as §5

[10] = test system: pRB; assay: Western blotting of pRB in U2OS; format: cell-based, human
Source text: as §5

[11] = test system: pRB; assay: Western blotting of pRB in TIG-1; format: cell-based, human; details: normal cells (TIG-1), vs control
Source text: as §5

[12] = test system: cyclin-B1; assay: Western blotting of cyclin-B1 in U2OS; format: cell-based, human; details: cancer cells (U2OS), FIG. 10B
Source text: as §5, with “10A. […] In parallel with the above, the expression levels of cyclin-B1, -D1, and -E1 and CDK-2, -4, and -6 were examined. […] On the other hand, the tendency regarding the expression levels for cyclin-D1 was the opposite of that for cyclin-B1. In the case of treatment with triethylene glycol, the expression level of cyclin-D1 increased in cancer cells but decreased in normal cells. The expression level of cyclin-E1 increased in both cancer cells and normal cells. The expression level of CDK-4 decreased in normal cells.” for “10A.”

[13] = test system: cyclin-B1; assay: Western blotting of cyclin-B1 in TIG-1; format: cell-based, human; details: normal cells (TIG-1), vs control, FIG. 10B
Source text: as §5, with “10A. […] In parallel with the above, the expression levels of cyclin-B1, -D1, and -E1 and CDK-2, -4, and -6 were examined. […] On the other hand, the tendency regarding the expression levels for cyclin-D1 was the opposite of that for cyclin-B1. In the case of treatment with triethylene glycol, the expression level of cyclin-D1 increased in cancer cells but decreased in normal cells. The expression level of cyclin-E1 increased in both cancer cells and normal cells. The expression level of CDK-4 decreased in normal cells.” for “10A.”

[14] = test system: cyclin-D1; assay: Western blotting of cyclin-D1 in U2OS; format: cell-based, human; details: cancer cells (U2OS), FIG. 10B
Protocol: (§6) In order to investigate the cytotoxicity action mechanism of triethylene glycol, human osteosarcoma cells (U2OS) and normal human fibroblasts (TIG-1) were each treated with AshLe-WEX or triethylene glycol (TEG), and the expression of cancer-inhibiting proteins p53 and pRB was examined by SDS-PAGE and Western blotting. Treatment with AshLe-WEX or triethylene glycol (TEG) was conducted by adding AshLe-WEX (final concentration: 0.5%) or triethylene glycol (final concentration: 0.5%, 1.0%, or 2.0%) to a medium for culturing cells and culturing for 48 hours. […] Numbers 1-5 in the bar charts of the expression level in the lower half of FIG. 10A correspond to numbers 1-5 of the lanes in the photo images in the upper half of FIG. 10A. […] It was found based on the proportion of phosphorylated-p53/p53 that phosphorylation rate increased in cells treated with AshLe-WEX or triethylene glycol by 30% to 40%, as compared with the control group. […] The proportion of phosphorylated-pRB/RB decreased from about 0.5 in control cells to about 0.3 in cells treated with triethylene glycol ([…]) while it increased by about 20% in normal cells in contrast.
(§7) In parallel with the above, the expression levels of cyclin-B1, -D1, and -E1 and CDK-2, -4, and -6 were examined. […] On the other hand, the tendency regarding the expression levels for cyclin-D1 was the opposite of that for cyclin-B1. […]

[15] = test system: cyclin-D1; assay: Western blotting of cyclin-D1 in TIG-1; format: cell-based, human; details: normal cells (TIG-1), FIG. 10B
Protocol: as §6, §7

[16] = test system: cyclin-E1; assay: Western blotting of cyclin-E1 in U2OS; format: cell-based, human; details: cancer cells (U2OS), FIG. 10B
Protocol: as §6, §7

[17] = test system: cyclin-E1; assay: Western blotting of cyclin-E1 in TIG-1; format: cell-based, human; details: normal cells (TIG-1), FIG. 10B
Protocol: as §6, §7

[18] = test system: CDK-4; assay: Western blotting of CDK-4 in TIG-1; format: cell-based, human; details: normal cells (TIG-1), FIG. 10B
Protocol: as §6, §7

[19] = test system: pRB; assay: Immunohistochemistry of pRB phosphorylation in U2OS; format: cell-based, human; details: cancer cells (U2OS), 0.5%, 48 hours, FIG. 11
Protocol: (§8) Immunohistochemistry was conducted for visualizing the degree of phosphorylation of p53 and pRB in human osteosarcoma cells (U2OS) and normal human fibroblasts (TIG-1) treated with […] or triethylene glycol. Treatment with […] or triethylene glycol was conducted by adding […] or triethylene glycol to a medium such that a final concentration becomes 0.5% and culturing the cells in each medium for 48 hours. The cells were stained with an anti-p53 antibody (DO-1) and an anti-pRB antibody ([…]). Immunostaining was visualized using an Alexa-488- or Alexa-594-labeled secondary antibody. Regarding pRB, which is a downstream effector of a cyclin-CDK complex, the degree of phosphorylation decreased in cancer cells treated with […] or triethylene glycol but increased in normal cells treated with […] or triethylene glycol (FIG. 11).

[20] = test system: pRB; assay: Immunohistochemistry of pRB phosphorylation in TIG-1; format: cell-based, human; details: normal cells (TIG-1), 0.5%, 48 hours, FIG. 11
Protocol: as §8

[21] = test system: Keap1; assay: Western blotting of Keap1 expression; format: cell-based; details: human lung cancer cells (A549), FIG. 13
[22] = test system: MMP-3; assay: Expression level of MMP-3; format: cell-based, human; details: A549, 48 hours, AshLe-WEX 0.5% or TEG 0.5%, 1.0% or 2.0%, FIG. 14
Source text: (§9) In order to examine the antimetastatic activity mechanism of […] and triethylene glycol, the expression levels of matrix metalloproteases (MMP-9, MMP-3, and MMP-2) were examined. Human lung cancer cells (A549) were used for examination. […] This effect was not observed for MMP-2.

[23] = test system: MMP-9; assay: Expression level of MMP-9; format: cell-based, human; details: A549, 48 hours, AshLe-WEX 0.5% or TEG 0.5%, 1.0% or 2.0%, FIG. 14
Source text: as §9

[24] = test system: MMP-2; assay: Expression level of MMP-2; format: cell-based, human; details: A549, 48 hours, AshLe-WEX 0.5% or TEG 0.5%, 1.0% or 2.0%, FIG. 14
Source text: as §9

[25] = test system: glioblastoma cells (C6 Glioma cells); assay: Differentiation induction assay of glioblastoma cells; format: cell-based; details: 0.6%, 48 hours
Protocol: Differentiation induction of glioblastoma cells and neuroblastoma cells by triethylene glycol was examined. Differentiation of glioblastoma cells was induced by treating the cells with 100 μmol of hydrogen peroxide for 2 to 3 hours and then culturing the cells in a medium containing […] or triethylene glycol (final concentration: 0.6%) for 48 hours. Cells of a control group were treated with hydrogen peroxide in the above manner and then cultured in a medium containing neither […] nor triethylene glycol.

[26] = test system: IMR32 neuroblastoma cells; assay: Differentiation induction assay of neuroblastoma cells; format: cell-based; details: 0.5%, FIG. 16
Protocol: Next, effects on IMR32 neuroblastoma cells treated with […] or triethylene glycol were examined. Differentiation of neuroblastoma cells was induced by treating the neuroblastoma cells with 100 μmol of hydrogen peroxide for 2 to 3 hours and then culturing the cells in a medium containing […] or triethylene glycol (final concentration: 0.5%). As control groups, a group of cells that had been treated with hydrogen peroxide in the above manner and then cultured in a medium containing neither […] nor triethylene glycol and a group of cells that no hydrogen peroxide treatment was conducted and cultured in a medium containing neither […] nor triethylene glycol without hydrogen peroxide treatment were prepared.

[27] = cancer cells (U2OS), vs control

OCCOCCOCCO [triethylene glycol]
concentration at which cancer cell growth is inhibited [1]: ≥ 0.5%
toxicity to normal human fibroblasts [2]: substantially no toxicity
cell cycle effect [3]: G1 arrest
tumor growth [4]: effect of tumor growth inhibition was confirmed
antimetastatic activity ([5]; lung, 5 weeks after tail vein injection, FIG. 8): powerful antimetastatic activity
number of lung tumors ([5]; vs control group, FIG. 8): lower than that of the control group
lung tumor volumes ([5]; vs control group, FIG. 8B): significantly low
invasion [6]: reduced
expression level of p53 ([7]; U2OS, 48 hours, AshLe-WEX 0.5% or TEG 0.5%, 1.0% or 2.0%, vs control, FIG. 10A): increased
phosphorylated-p53 protein ([7]; cancer cells (U2OS), anti-phosphoserine-specific antibody): increased
expression level of p53 ([8]; 48 hours, vs control, FIG. 10A): increased
phosphorylated-p53 protein ([8]; anti-phosphoserine-specific antibody): increased
expression level of p21 [9]: increased
proportion of phosphorylated-pRB/RB ([10]; cancer cells (U2OS) treated, control cells about 0.5): about 0.3
decrease of proportion of phosphorylated-pRB/RB [10, 27]: about 20%
phosphorylated-pRB [10, 27]: decreased
increase of proportion of phosphorylated-pRB/RB [11]: about 20%
phosphorylated-pRB [11]: increased
expression level of cyclin-B1 [12]: decreased
expression level of cyclin-B1 [13]: increased
expression level of cyclin-D1 [14]: increased
expression level of cyclin-D1 [15]: decreased
expression level of cyclin-E1 [16]: increased
expression level of cyclin-E1 [17]: increased
expression level of CDK-4 [18]: decreased
degree of phosphorylation of pRB (immunohistochemistry) [19]: decreased
degree of phosphorylation of pRB (immunohistochemistry) [20]: increased
expression level of Keap1 [21]: increase
expression level of MMP-3 [22]: remarkably decreased
expression level of MMP-9 [23]: remarkably decreased
decrease of expression level of MMP-2 [24]: not observed
cell form (differentiation induction) ([25]; after 100 μmol hydrogen peroxide 2 to 3 hours, FIG. 15A): astrocyte-like form
induction of GFAP (glial cell differentiation marker protein) ([25]; after hydrogen peroxide, FIG. 15B): upregulated
cell form (differentiation induction) ([26]; after 100 μmol hydrogen peroxide 2 to 3 hours): neuron-like form
neurofilament protein (NF200) ([26]; after hydrogen peroxide): increase
